Series [1] can be described thus: Pharmacokinetic evaluation in mice (plasma and brain). Type of series: in vivo, male NMRI mice. The note with it: for Kp / half-life / Tmax / Cmax: male, NMRI, mouse; for Kp: brain/plasma, single oral administration of 20 mg/kg. The protocol:
Compounds S1 and S2 were formulated at 0.4 mg/mL in 7.5% NMP, 10% Kolliphor in 0.9% NaCl (for i.v. administration) and at 2.0 mg/mL in 0.1% Tween 80, 0.5% Na-CMC in water (for p.o. administration).
The pharmacokinetic properties of S1 and S2 were determined in male NMRI mice (Charles River, Germany) following single intravenous (i.v., tail vein, 2 mg/kg) or per oral (p.o, gavage, 20 mg/kg). Light isoflurane anaesthesia was used at i.v. administration, no anaesthesia was used at p.o. administration. Blood samples were kept on ice after sampling and centrigued at +4 °C, 1800 x g for 5 minutes to prepare plasma. Blood and homogenized brain samples were taken from animals at the following nominal time points: 15, 30, and 60 minutes, and 2, 4, 6, 8, 24, 48, 72 and 144 hours after dosing (n=3 samples/time-point). Blood sampling (400-600 microliters) was performed by orbital plexus collection under isoflurane anaesthesia into EDTA plasma tubes (BD Microtainer K2EDTA). Bioanalytical quantification of S1 and S2 was analysed in plasma and brain samples by a UPLC-MS/MS. Pharmacokinetics were calculated by non-compartmental analysis (NCA) from composite (mean) profiles using Phoenix WinNonlin Professional (v 6.3). Nominal sampling times and dose levels have been used for the NCA calculations. All animals dosed with S1 and S2 were systemically exposed to the test compound. The plasma and brain concentrations were detectable and analysed until 144 h.
Brain sampling was performed after the end of blood sampling at the specified time points following euthanization and skull extraction. Brains were weighed and placed in test tubes and placed on wet ice. 4 mL PBS (pH 7.4) per 1 g of brain tissue was added to the test tube and brains were then homogenized using an Ultra-Turrax T25 homogenisator (Setting 2, 9500 rpm, 10s). The homogenates were frozen at -20° C immediately after homogenization.

Series [2] relates to glioblastoma cell line U3013. Briefly: ATP viability assay (CellTiter-Glo). Type of series: cell-based, human. On the procedure:
The human melanoma cell line SK-MEL-28 is a well established reference cell line in melanoma research (Goodfellow M, et al. J. Natl. Cancer Inst. 59: 221-226, 1977). Cells were cultured in MEM supplemented with 10% FCS. Glioblastoma cell line (U3013) was generated directly from patient-derived tumors (Kitambi et al. Cell. 2014: 157(2):313-28) and grown in serum-free media supplemented with N2, B27, EGF, and FGF-2 (20 ng/ml) using previously described methodology (Pollard et al., 2009).
Culture plates were pre-coated with laminin (Sigma) for 3 hr at 10 ug/ml prior to use and confluent cells were split 1:3 to 1:5 using TrypLE Express (Invitrogen).
Viability assay was conducted in 96 well microtiter plates seeded with 3000 cells. Cell viability was measured using CellTiter-Glo assay (Promega), according to the manufacturer's instructions. Luminescence was measured using Victor3 FA (Perkin Elmer) microtiter plate reader. Total luminescence was normalized relative to negative control and curve fitting performed using GraphPad Prism (v6.02) software. IC50 was determined using Cell Viability assay, and data was illustrated using GraphPad Prism (version 6.02)
(Cellular ATP, detected with luciferase, serves as a proxy for viable cell number.)

From patent EP3064205A1, “Therapeutic use of isomeric forms of 2-(4-chlorophenyl)quinolin-4-yl)(piperidin-2-yl)methanol” (Glionova AB, priority 2015, dated 2016) come the findings set out here.

“Also recorded” adds a separate entry of the source. Where two headings read alike, the source gives them in different places.

On to `O[C@H](c1cc(-c2ccc(Cl)cc2)nc2ccccc12)[C@@H]1CCCCN1` [S1, (R)-(2-(4-chlorophenyl)quinolin-4-yl)((S)-piperidin-2-yl)methanol], for which the “Brain AUC last” value amounted to 52.7 µg·h/mL in series [1] (brain, i.v., 2 mg/kg) and 400 µg·h/mL in series [1] (brain, p.o., 20 mg/kg). Also, the “Brain Cmax” value in series [1] (brain, i.v., 2 mg/kg) was determined as 1970 ng/mL; in series [1] (brain, p.o., 20 mg/kg) it was 4840 ng/mL. Besides, the “Brain tlast” value in series [1] (brain, i.v., 2 mg/kg) is on record as 144 h; in series [1] (brain, p.o., 20 mg/kg), 144 h. The Kp in series [1] (po, 20 mg/kg, read-out: exposure ratio AUC(brain/plasma)) turned out to be 1.6; in series [1] (po, 20 mg/kg, read-out: exposure ratio Cmax(brain/plasma)) it was 2.2. In addition, the half-life is 67 h in series [1] (iv, brain, i.v., 2 mg/kg, read-out: Brain T1/2 (converted)) and 84 h in series [1] (iv, plasma, i.v., 2 mg/kg, read-out: Plasma T1/2 (converted)). Besides, the time of peak concentration (Tmax) is 0.25 h in series [1] (iv, brain, i.v., 2 mg/kg, read-out: Brain tmax); 4 h in series [1] (iv, plasma, i.v., 2 mg/kg, read-out: Plasma tmax); 8 h in series [1] (po, brain, p.o., 20 mg/kg, read-out: Brain tmax); 4 h in series [1] (po, plasma, p.o., 20 mg/kg, read-out: Plasma tmax). In addition, the highest concentration (Cmax) in series [1] (iv, plasma, 2 mg/kg) worked out at 775 ng/mL; in series [1] (po, plasma, 20 mg/kg), 2210 ng/mL. Further, the “Plasma AUC last” value stood at 62 µg·h/mL in series [1] (plasma, i.v., 2 mg/kg) and 246 µg·h/mL in series [1] (plasma, p.o., 20 mg/kg). Also, the “Plasma tlast” value in series [1] (plasma, i.v., 2 mg/kg) is given as 144 h; in series [1] (plasma, p.o., 20 mg/kg) it was 144 h. Besides, the half-inhibitory concentration (IC50) in series [2] (Homo sapiens, U3013, positive control cell line, 24, 48 and 72 h) was in the range of 1900 to 3500 nM. The “in vitro cytotoxicity, comparison of isolated isomers” value in series [2] (U3013, dose response, CellTiterGlo ATP quantification) is “S1 and S2 exhibit greater in vitro oncolytic potency than the corresponding S3 and S4 isomers; also recorded: S1 and S2 exhibit higher cytotoxicity on cancer cells than S3 and S4”.

The term Tmax denotes the time from dosing to the highest level. Usually Cmax stands for the peak of the concentration-time curve. As usually defined, the IC50 is the point on the concentration scale where inhibition reaches its midpoint.
